For this experiment, the system named is BDF1 mice, P388 leukemia ip, median survival T/C. As to the kind of experiment: NCI In Vivo Anticancer Drug Screen. Data for tumor model P388 Leukemia (intraperitoneal) in B6D2F1 (BDF1) mice. To be noted: endpoint: median survival time, higher = longer survival. In outline: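 Read-out is survival of treated animals expressed relative to the vehicle group, as a T/C ratio.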

[1] abbreviates: dose: 12.5 mg/kg/injection, schedule: Q01DX009 (ip), vehicle: Klucel (hydroxypropylcellulose) (HPC).
The mark [2] stands for this setting: dose: 25.0 mg/kg/injection, schedule: Q01DX009 (ip), vehicle: Klucel (hydroxypropylcellulose) (HPC).
Where [3] appears, read: dose: 200.0 mg/kg/injection, schedule: Q04DX003 (ip), vehicle: saline with Tween-80.
Where [4] appears, read: dose: 100.0 mg/kg/injection, schedule: Q04DX003 (ip), vehicle: saline with Tween-80.
Where [5] appears, read: dose: 100.0 mg/kg/injection, schedule: Q04DX003 (ip), vehicle: Klucel (hydroxypropylcellulose) (HPC).
Setting [6] is: dose: 200.0 mg/kg/injection, schedule: Q04DX003 (ip), vehicle: Klucel (hydroxypropylcellulose) (HPC).
The mark [7] stands for this setting: dose: 50.0 mg/kg/injection, schedule: Q01DX009 (ip), vehicle: saline with Tween-80.
Setting [8] is: dose: 100.0 mg/kg/injection, schedule: Q01DX009 (ip), vehicle: saline with Tween-80.
[9] abbreviates: dose: 200.0 mg/kg/injection, schedule: Q01DX009 (ip), vehicle: saline with Tween-80.

Several values for one entry are separate records, joined by “and”; a condition that tells them apart may be missing. Equal values may be shown once. Toxic doses and inconclusive results are not listed.

As for `O=[N+]([O-])c1ccc(-[n+]2nc(-c3ccccc3)nn2-c2ccc(I)cc2)cc1`, the T/C is, setting by setting: under setting [1], 100 % of control; (dose: 16.5 mg/kg/injection, schedule: Q04DX003 (ip), vehicle: Klucel (hydroxypropylcellulose) (HPC)) 90 % of control; (dose: 16.5 mg/kg/injection, schedule: Q04DX003 (ip), vehicle: saline) 122 % of control; under setting [2], 110 % of control; (dose: 25.0 mg/kg/injection, schedule: Q04DX003 (ip), vehicle: Klucel (hydroxypropylcellulose) (HPC)) 109 % of control; (dose: 25.0 mg/kg/injection, schedule: Q04DX003 (ip), vehicle: saline) 109 % of control. Also, the T/C is 100 % of control (dose: 37.5 mg/kg/injection, schedule: Q04DX003 (ip), vehicle: Klucel (hydroxypropylcellulose) (HPC)) and 122 % of control (dose: 37.5 mg/kg/injection, schedule: Q04DX003 (ip), vehicle: saline).
Turning to `C1CC2CCC[N]3C2C(C1)[O][Pb]31[O]C2CCCC3CCC[N]1C32` (configuration not stated), the T/C is, setting by setting: (dose: 133.0 mg/kg/injection, schedule: Q04DX003 (ip), vehicle: saline with Tween-80) 96 % of control and 100 % of control; under setting [3], 100 % of control and 104 % of control; (dose: 300.0 mg/kg/injection, schedule: Q04DX003 (ip), vehicle: saline with Tween-80) 95 % of control and 104 % of control.
Consider `C[N+](C)(Cn1nc(Cl)c2ccc([N+](=O)[O-])cc21)Cn1nc(Cl)c2ccc([N+](=O)[O-])cc21`, for which the T/C was 100 % of control under setting [4] and 108 % of control under setting [3].
For `CCOC1CC2c3ccccc3C1c1cccc[n+]12` (configuration not stated), the T/C was 108 % of control (dose: 9.37 mg/kg/injection, schedule: Q01DX009 (ip), vehicle: saline); 108 % of control (dose: 18.75 mg/kg/injection, schedule: Q01DX009 (ip), vehicle: saline); 91 % of control (dose: 37.5 mg/kg/injection, schedule: Q01DX009 (ip), vehicle: saline).
Consider `COc1cc2c3c(c1)C(=O)CCN3CCC2`, for which the T/C is, setting by setting: (dose: 50.0 mg/kg/injection, schedule: Q04DX003 (ip), vehicle: Klucel (hydroxypropylcellulose) (HPC)) 95 % of control; under setting [5], 95 % of control; under setting [6], 87 % of control.
With `CCCC(C(O)c1ccc(OC)cc1)C(O)(C(F)(F)F)C(F)(F)F` (configuration not stated), the T/C was 90 % of control (dose: 100.0 mg/kg/injection, schedule: Q04DX003 (ip), vehicle: other); 105 % of control (dose: 200.0 mg/kg/injection, schedule: Q04DX003 (ip), vehicle: other); 105 % of control (dose: 400.0 mg/kg/injection, schedule: Q04DX003 (ip), vehicle: other).
For `CC(=O)C(=Cc1c[nH]c2ccccc12)C(C)=O`, the T/C is 92 % of control under setting [1]; 90 % of control under setting [2]; 110 % of control (dose: 100.0 mg/kg/injection, schedule: Q01DX009 (ip), vehicle: Klucel (hydroxypropylcellulose) (HPC)); 105 % of control (dose: 100.0 mg/kg/injection, schedule: Q04DX003 (ip), vehicle: water); 120 % of control (dose: 200.0 mg/kg/injection, schedule: Q04DX003 (ip), vehicle: water).
With `O=S1ON=C(C2CCC(C3=NOS(=O)O3)C2)O1` (configuration not stated), the T/C reads like this: (dose: 25.0 mg/kg/injection, schedule: Q01DX005 (ip), vehicle: saline with Tween-80) 97 % of control; (dose: 50.0 mg/kg/injection, schedule: Q01DX005 (ip), vehicle: saline with Tween-80) 104 % of control; (dose: 100.0 mg/kg/injection, schedule: Q01DX005 (ip), vehicle: saline with Tween-80) 114 % of control.
As to `O=C(Nc1ccc(C(=O)Nc2ccc(C3=NCCCN3)cc2)cc1)Nc1ccc(C2=NCCCN2)cc1`, the T/C (dose: 16.5 mg/kg/injection, schedule: Q04DX003 (ip), vehicle: saline with Tween-80) was 122 % of control and 204 % of control; the T/C (dose: 25.0 mg/kg/injection, schedule: Q04DX003 (ip), vehicle: saline with Tween-80) is 245 % of control and 163 % of control; the T/C (dose: 37.5 mg/kg/injection, schedule: Q04DX003 (ip), vehicle: saline with Tween-80) was 159 % of control and 186 % of control.
Regarding `CC1(C)Oc2nc(N)nc(N)c2C1c1ccc(Cl)cc1` (configuration not stated), the T/C was 104 % of control under setting [5]; 100 % of control under setting [6]; 95 % of control (dose: 400.0 mg/kg/injection, schedule: Q04DX003 (ip), vehicle: Klucel (hydroxypropylcellulose) (HPC)).
As to `O=C(O)C1(C(=O)O)CC2CC=CCC2C1` (configuration not stated), the T/C reads like this: (dose: 100.0 mg/kg/injection, schedule: Q04DX003 (ip), vehicle: saline) 110 % of control; (dose: 200.0 mg/kg/injection, schedule: Q04DX003 (ip), vehicle: saline) 120 % of control.
In the case of `O=[N+]([O-])c1ccc(S(=O)c2ccc([N+](=O)[O-])c3nonc23)cc1` (configuration not stated), the T/C was 90 % of control (dose: 15.0 mg/kg/injection, schedule: Q01DX009 (ip), vehicle: saline with Tween-80) and 97 % of control (dose: 30.0 mg/kg/injection, schedule: Q01DX009 (ip), vehicle: saline with Tween-80).
Consider `CC(NC(=O)C(N)C(C)C)C(=O)O` (configuration not stated), for which the T/C is, setting by setting: (dose: 50.0 mg/kg/injection, schedule: Q01DX005 (ip), vehicle: saline) 92 % of control; (dose: 100.0 mg/kg/injection, schedule: Q01DX005 (ip), vehicle: saline) 97 % of control; (dose: 200.0 mg/kg/injection, schedule: Q01DX005 (ip), vehicle: saline) 92 % of control.
As to `CCC(NC(N)=O)C(CC)NC(N)=O` (configuration not stated), the T/C is, setting by setting: (dose: 25.0 mg/kg/injection, schedule: Q01DX009 (ip), vehicle: saline with Tween-80) 106 % of control; under setting [7], 120 % of control and 123 % of control.
In the case of `COc1cc(/C=N/N2CCCCC2)cc(OC)c1OC`, the T/C under setting [8] is 100 % of control; the T/C under setting [4] was 100 % of control; the T/C under setting [9] was 90 % of control; the T/C under setting [3] is 100 % of control; the T/C (dose: 400.0 mg/kg/injection, schedule: Q01DX009 (ip), vehicle: saline with Tween-80) was 100 % of control; the T/C (dose: 400.0 mg/kg/injection, schedule: Q04DX003 (ip), vehicle: saline with Tween-80) was 90 % of control.
Regarding `CCCCCCC(=O)/C=C/c1cccc(O)c1`, the T/C is 104 % of control under setting [7], 104 % of control under setting [8] and 95 % of control under setting [9].
As to `O=C1Nc2ccccc2S/C1=C\c1ccc(C(F)(F)F)cc1`, the T/C by setting is: under setting [7], 115 % of control; under setting [8], 100 % of control; under setting [9], 110 % of control.

Source of the values: PubChem BioAssay AID328 (DTP/NCI, 2004).
